# Paper PMC9983021, “Novel GluN2B-Selective NMDA Receptor Negative Allosteric Modulator Possesses Intrinsic Analgesic Properties and Enhances Analgesia of Morphine in a Rodent Tail Flick Pain Model” (ACS Chemical Neuroscience, 2023)
# Read-outs that look alike come from different tables or passages of the source.
# Legend:
# 5-HT5A = target: T1, 5-HT5A (Homo sapiens, UniProt P47898); assay: Radioligand binding assay (NIMH PDSP); settings: primary screen, quadruplicate
# T1 construct: purchased NIMH Psychoactive Drug Screening Program (PDSP)
# Description: (§1) Conventional competition and saturation radioligand binding assays were used to determine the affinities of reference standards and EU93-108. Experiments were carried out by the NIMH Psychoactive Drug Screening Program (PDSP) and were performed as previously described.[123]
# (§2) The detailed experimental protocols for the radioligand assays are available on the NIMH PDSP website at https://pdsp.unc.edu/pdspweb/content/UNC-CH%20Protocol%20Book.pdf.
# (§3) Receptor Mean % Receptor Mean % Receptor Mean %
# (§4) Inhibition Inhibition Inhibition
# (§5) Supplemental Table S4. Off-Target Actions of EU93-108: Primary GPCR Screen. Cloned human molecular targets were individually expressed and submitted to molecular target-based screening with initial screens performed at a final concentration of 10 µM in quadruplicate. Complete protocols for the assays have been previously published (Besnard J et al. 2012). Where inhibition greater than 50% was measured, secondary screens were performed wherein Ki values were calculated (see Table 4).
# D4 = target: T2, D4 (Homo sapiens, UniProt P21917); assay: Radioligand binding assay (NIMH PDSP); settings: primary screen, quadruplicate
# T2 construct: purchased NIMH Psychoactive Drug Screening Program (PDSP)
# Description: as §1, §2, §3, §4, §5
# M5 = target: T3, M5 (Homo sapiens, UniProt P08912); assay: Radioligand binding assay (NIMH PDSP); settings: primary screen, quadruplicate
# T3 construct: purchased NIMH Psychoactive Drug Screening Program (PDSP)
# Description: as §1, §2, §3, §4, §5
# SERT = target: T4, SERT (Homo sapiens, UniProt P31645); assay: Radioligand binding assay (NIMH PDSP); settings: primary screen, quadruplicate
# T4 construct: purchased NIMH Psychoactive Drug Screening Program (PDSP)
# Description: as §1, §2, §3, §4, §5
# Beta3 = target: T5, Beta3 (Homo sapiens, UniProt P13945); assay: Radioligand binding assay (NIMH PDSP); settings: primary screen, quadruplicate
# T5 construct: purchased NIMH Psychoactive Drug Screening Program (PDSP)
# Description: as §1, §2, §3, §4, §5
# Alpha1B = target: T6, Alpha1B (Homo sapiens, UniProt P35368); assay: Radioligand binding assay (NIMH PDSP); settings: primary screen, quadruplicate
# T6 construct: purchased NIMH Psychoactive Drug Screening Program (PDSP)
# Description: as §1, §2, §3, §4, §5
# H3 = target: T7, H3 (Homo sapiens, UniProt Q9Y5N1); assay: Radioligand binding assay (NIMH PDSP); settings: primary screen, quadruplicate
# T7 construct: purchased NIMH Psychoactive Drug Screening Program (PDSP)
# Description: as §1, §2, §3, §4, §5
# 5-HT1E = target: T8, 5-HT1E (Homo sapiens, UniProt P28566); assay: Radioligand binding assay (NIMH PDSP); settings: primary screen, quadruplicate
# T8 construct: purchased NIMH Psychoactive Drug Screening Program (PDSP)
# Description: as §1, §2, §3, §4, §5
# DAT = target: T9, DAT (Homo sapiens, UniProt Q01959); assay: Radioligand binding assay (NIMH PDSP); settings: primary screen, quadruplicate
# T9 construct: purchased NIMH Psychoactive Drug Screening Program (PDSP)
# Description: as §1, §2, §3, §4, §5
# NET = target: T10, NET (Homo sapiens, UniProt P23975); assay: Radioligand binding assay (NIMH PDSP); settings: primary screen, quadruplicate
# T10 construct: purchased NIMH Psychoactive Drug Screening Program (PDSP)
# Description: as §1, §2, §3, §4, §5
# 5-HT6 = target: T11, 5-HT6 (Homo sapiens, UniProt P50406); assay: Radioligand binding assay (NIMH PDSP); settings: primary screen, quadruplicate
# T11 construct: purchased NIMH Psychoactive Drug Screening Program (PDSP)
# Description: as §1, §2, §3, §4, §5
# M4 = target: T12, M4 (Homo sapiens, UniProt P08173); assay: Radioligand binding assay (NIMH PDSP); settings: primary screen, quadruplicate
# T12 construct: purchased NIMH Psychoactive Drug Screening Program (PDSP)
# Description: as §1, §2, §3, §4, §5
# D5 = target: T13, D5 (Homo sapiens, UniProt P21918); assay: Radioligand binding assay (NIMH PDSP); settings: primary screen, quadruplicate
# T13 construct: purchased NIMH Psychoactive Drug Screening Program (PDSP)
# Description: as §1, §2, §3, §4, §5
# BZP Rat Brain Site = assay: Radioligand binding assay (NIMH PDSP); settings: primary screen, 10 µM, quadruplicate
# Description: as §1, §2, §3, §4, §5
# 5-HT3 = target: T14, 5-HT3 (Homo sapiens, UniProt P46098); assay: Radioligand binding assay (NIMH PDSP); settings: primary screen, quadruplicate
# T14 construct: purchased NIMH Psychoactive Drug Screening Program (PDSP)
# Description: as §1, §2, §3, §4, §5
# Beta1 = target: T15, Beta1 (Homo sapiens, UniProt P08588); assay: Radioligand binding assay (NIMH PDSP); settings: primary screen, quadruplicate
# T15 construct: purchased NIMH Psychoactive Drug Screening Program (PDSP)
# Description: as §1, §2, §3, §4, §5
# KOR = target: T16, KOR (Homo sapiens, UniProt P41145); assay: Radioligand binding assay (NIMH PDSP); settings: primary screen, quadruplicate
# T16 construct: purchased NIMH Psychoactive Drug Screening Program (PDSP)
# Description: as §1, §2, §3, §4, §5
# MOR = target: T17, MOR (Homo sapiens, UniProt P35372); assay: Radioligand binding assay (NIMH PDSP); settings: primary screen, quadruplicate
# T17 construct: purchased NIMH Psychoactive Drug Screening Program (PDSP)
# Description: as §1, §2, §3, §4, §5
# 5-HT1D = target: T18, 5-HT1D (Homo sapiens, UniProt P28221); assay: Radioligand binding assay (NIMH PDSP); settings: primary screen, quadruplicate
# T18 construct: purchased NIMH Psychoactive Drug Screening Program (PDSP)
# Description: as §1, §2, §3, §4, §5
# M2 = target: T19, M2 (Homo sapiens, UniProt P08172); assay: Radioligand binding assay (NIMH PDSP); settings: primary screen, quadruplicate
# T19 construct: purchased NIMH Psychoactive Drug Screening Program (PDSP)
# Description: as §1, §2, §3, §4, §5
# 5-HT1B = target: T20, 5-HT1B (Homo sapiens, UniProt P28222); assay: Radioligand binding assay (NIMH PDSP); settings: primary screen, quadruplicate
# T20 construct: purchased NIMH Psychoactive Drug Screening Program (PDSP)
# Description: as §1, §2, §3, §4, §5
# H4 = target: T21, H4 (Homo sapiens, UniProt Q9H3N8); assay: Radioligand binding assay (NIMH PDSP); settings: primary screen, quadruplicate
# T21 construct: purchased NIMH Psychoactive Drug Screening Program (PDSP)
# Description: as §1, §2, §3, §4, §5
# 5-HT7A = target: T22, 5-HT7A (Homo sapiens, UniProt P34969); assay: Radioligand binding assay (NIMH PDSP); settings: primary screen, quadruplicate
# T22 construct: purchased NIMH Psychoactive Drug Screening Program (PDSP)
# Description: as §1, §2, §3, §4, §5
# Beta2 = target: T23, Beta2 (Homo sapiens, UniProt P07550); assay: Radioligand binding assay (NIMH PDSP); settings: primary screen, quadruplicate
# T23 construct: purchased NIMH Psychoactive Drug Screening Program (PDSP)
# Description: as §1, §2, §3, §4, §5
# H2 = target: T24, H2 (Homo sapiens, UniProt P25021); assay: Radioligand binding assay (NIMH PDSP); settings: primary screen, quadruplicate
# T24 construct: purchased NIMH Psychoactive Drug Screening Program (PDSP)
# Description: as §1, §2, §3, §4, §5
# D2 = target: T25, D2 (Homo sapiens, UniProt P14416); assay: Radioligand binding assay (NIMH PDSP); settings: primary screen, quadruplicate
# T25 construct: purchased NIMH Psychoactive Drug Screening Program (PDSP)
# Description: as §1, §2, §3, §4, §5
# 5-HT1A = target: T26, 5-HT1A (Homo sapiens, UniProt P08908); assay: Radioligand binding assay (NIMH PDSP); settings: primary screen, quadruplicate
# T26 construct: purchased NIMH Psychoactive Drug Screening Program (PDSP)
# Description: as §1, §2, §3, §4, §5
# M1 = target: T27, M1 (Homo sapiens, UniProt P11229); assay: Radioligand binding assay (NIMH PDSP); settings: primary screen, quadruplicate
# T27 construct: purchased NIMH Psychoactive Drug Screening Program (PDSP)
# Description: as §1, §2, §3, §4, §5
# M3 = target: T28, M3 (Homo sapiens, UniProt P20309); assay: Radioligand binding assay (NIMH PDSP); settings: primary screen, quadruplicate
# T28 construct: purchased NIMH Psychoactive Drug Screening Program (PDSP)
# Description: as §1, §2, §3, §4, §5
# D1 = target: T29, D1 (Homo sapiens, UniProt P21728); assay: Radioligand binding assay (NIMH PDSP); settings: primary screen, quadruplicate
# T29 construct: purchased NIMH Psychoactive Drug Screening Program (PDSP)
# Description: as §1, §2, §3, §4, §5
# Sigma2 = target: T30, Sigma2 (Homo sapiens, UniProt Q5BJF2); assay: Radioligand binding assay (NIMH PDSP); settings: primary screen, quadruplicate
# T30 construct: purchased NIMH Psychoactive Drug Screening Program (PDSP)
# Description: as §1, §2, §3, §4, §5
# DOR = target: T31, DOR (Homo sapiens, UniProt P41143); assay: Radioligand binding assay (NIMH PDSP); settings: primary screen, quadruplicate
# T31 construct: purchased NIMH Psychoactive Drug Screening Program (PDSP)
# Description: as §1, §2, §3, §4, §5
# [1] = Determination of plasma and brain concentrations; assay type: in vivo; settings: Sprague-Dawley, rat, ip, male rats, 60 mg/kg i.p.
# Description: Brain concentrations were measured from whole forebrain homogenate at each time point.
# Trunk blood was collected in K-EDTA tubes and then spun in a microcentrifuge at 3500 rpm for 10 min to separate plasma, which was then transferred to a clean tube and frozen on dry ice. To prepare forebrain tissue samples, the whole brain was removed from the skull, the cerebellum and brainstem cut away, the meninges were removed, and the forebrain was then rinsed with ice-cold normal saline, after which it was blotted dry with filter paper and weighed on a microbalance. To each forebrain 2.5 mL of ice-cold 50 mM K-phosphate buffer (pH 7.4) was then added and the samples homogenized with a hand-held homogenizer. The brain homogenates were then transferred to clean tubes (2 per brain) and frozen on dry ice.
# Plasma and brain homogenate samples were analyzed by LC-MS/MS operating in multiple reaction monitor mode (MRM) by Ricerca Biosciences (Dublin, OH). […] The amount of parent compound in each plasma or brain sample was calculated by comparing the response of the analyte in the sample to that of a standard curve (Ricerca, OH).
# T30 sequence (Q5BJF2 whole entry): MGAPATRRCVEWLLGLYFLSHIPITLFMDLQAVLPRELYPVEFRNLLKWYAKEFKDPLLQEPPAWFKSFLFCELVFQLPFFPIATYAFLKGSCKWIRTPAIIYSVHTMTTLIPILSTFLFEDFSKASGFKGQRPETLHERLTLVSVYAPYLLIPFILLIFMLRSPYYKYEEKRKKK
# T9 sequence (Q01959 whole entry): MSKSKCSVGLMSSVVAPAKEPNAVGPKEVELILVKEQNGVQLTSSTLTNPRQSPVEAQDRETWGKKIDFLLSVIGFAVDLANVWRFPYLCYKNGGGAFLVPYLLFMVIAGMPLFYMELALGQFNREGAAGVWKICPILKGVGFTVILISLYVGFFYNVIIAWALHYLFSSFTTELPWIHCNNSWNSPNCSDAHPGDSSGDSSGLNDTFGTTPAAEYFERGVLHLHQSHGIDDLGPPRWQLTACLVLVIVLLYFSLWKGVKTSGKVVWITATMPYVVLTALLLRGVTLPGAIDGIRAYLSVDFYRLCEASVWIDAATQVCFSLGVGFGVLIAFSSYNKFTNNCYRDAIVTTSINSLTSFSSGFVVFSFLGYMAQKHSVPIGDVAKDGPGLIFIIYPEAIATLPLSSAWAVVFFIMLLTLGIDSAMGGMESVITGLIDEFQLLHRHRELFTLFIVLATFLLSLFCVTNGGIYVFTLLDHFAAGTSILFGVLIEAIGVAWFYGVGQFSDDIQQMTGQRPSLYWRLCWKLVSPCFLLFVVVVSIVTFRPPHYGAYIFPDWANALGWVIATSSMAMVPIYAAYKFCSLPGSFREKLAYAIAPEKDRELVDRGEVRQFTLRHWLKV
# T11 sequence (P50406 whole entry): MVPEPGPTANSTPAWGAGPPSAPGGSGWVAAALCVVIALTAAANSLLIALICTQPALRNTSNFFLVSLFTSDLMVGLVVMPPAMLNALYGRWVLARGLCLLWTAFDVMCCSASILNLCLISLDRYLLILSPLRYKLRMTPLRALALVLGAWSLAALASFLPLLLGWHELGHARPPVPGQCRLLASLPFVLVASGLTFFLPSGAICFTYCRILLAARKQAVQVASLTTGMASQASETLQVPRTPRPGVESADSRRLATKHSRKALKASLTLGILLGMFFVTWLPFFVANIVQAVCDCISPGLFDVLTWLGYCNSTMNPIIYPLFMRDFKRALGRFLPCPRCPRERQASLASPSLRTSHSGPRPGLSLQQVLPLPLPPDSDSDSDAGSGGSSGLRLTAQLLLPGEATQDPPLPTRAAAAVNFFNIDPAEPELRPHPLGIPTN
# T5 sequence (P13945 whole entry): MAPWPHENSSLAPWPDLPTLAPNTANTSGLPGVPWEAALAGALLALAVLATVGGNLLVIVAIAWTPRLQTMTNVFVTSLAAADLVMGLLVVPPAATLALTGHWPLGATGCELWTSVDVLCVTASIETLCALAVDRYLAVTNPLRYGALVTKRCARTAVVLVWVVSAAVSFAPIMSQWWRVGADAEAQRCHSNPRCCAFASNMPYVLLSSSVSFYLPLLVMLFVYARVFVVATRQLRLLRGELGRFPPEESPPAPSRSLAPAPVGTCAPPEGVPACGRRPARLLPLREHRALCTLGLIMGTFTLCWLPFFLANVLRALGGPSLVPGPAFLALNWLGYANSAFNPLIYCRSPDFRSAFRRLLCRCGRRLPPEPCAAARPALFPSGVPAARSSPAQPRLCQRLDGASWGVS
# T8 sequence (P28566 whole entry): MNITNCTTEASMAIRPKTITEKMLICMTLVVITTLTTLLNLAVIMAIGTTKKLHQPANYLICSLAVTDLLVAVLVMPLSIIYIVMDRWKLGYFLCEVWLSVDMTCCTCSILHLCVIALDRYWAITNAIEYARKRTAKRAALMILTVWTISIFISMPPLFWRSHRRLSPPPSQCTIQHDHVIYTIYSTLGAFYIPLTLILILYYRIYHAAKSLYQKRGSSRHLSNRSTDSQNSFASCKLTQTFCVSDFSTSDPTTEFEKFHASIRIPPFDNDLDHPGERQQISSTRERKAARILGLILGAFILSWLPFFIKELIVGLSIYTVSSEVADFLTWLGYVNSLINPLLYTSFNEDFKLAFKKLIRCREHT
# T7 sequence (Q9Y5N1 whole entry): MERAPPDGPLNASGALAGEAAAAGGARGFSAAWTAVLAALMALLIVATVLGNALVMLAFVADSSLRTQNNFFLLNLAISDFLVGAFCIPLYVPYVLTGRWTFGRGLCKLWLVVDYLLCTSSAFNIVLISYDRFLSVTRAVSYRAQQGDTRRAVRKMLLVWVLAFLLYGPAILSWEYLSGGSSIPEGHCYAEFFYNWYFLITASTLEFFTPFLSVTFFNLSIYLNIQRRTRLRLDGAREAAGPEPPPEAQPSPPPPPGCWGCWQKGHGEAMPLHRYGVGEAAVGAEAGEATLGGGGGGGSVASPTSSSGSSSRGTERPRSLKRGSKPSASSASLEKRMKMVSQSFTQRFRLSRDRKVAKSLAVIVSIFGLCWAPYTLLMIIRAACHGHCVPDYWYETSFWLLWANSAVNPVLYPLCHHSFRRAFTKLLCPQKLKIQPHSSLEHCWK
# T4 sequence (P31645 whole entry): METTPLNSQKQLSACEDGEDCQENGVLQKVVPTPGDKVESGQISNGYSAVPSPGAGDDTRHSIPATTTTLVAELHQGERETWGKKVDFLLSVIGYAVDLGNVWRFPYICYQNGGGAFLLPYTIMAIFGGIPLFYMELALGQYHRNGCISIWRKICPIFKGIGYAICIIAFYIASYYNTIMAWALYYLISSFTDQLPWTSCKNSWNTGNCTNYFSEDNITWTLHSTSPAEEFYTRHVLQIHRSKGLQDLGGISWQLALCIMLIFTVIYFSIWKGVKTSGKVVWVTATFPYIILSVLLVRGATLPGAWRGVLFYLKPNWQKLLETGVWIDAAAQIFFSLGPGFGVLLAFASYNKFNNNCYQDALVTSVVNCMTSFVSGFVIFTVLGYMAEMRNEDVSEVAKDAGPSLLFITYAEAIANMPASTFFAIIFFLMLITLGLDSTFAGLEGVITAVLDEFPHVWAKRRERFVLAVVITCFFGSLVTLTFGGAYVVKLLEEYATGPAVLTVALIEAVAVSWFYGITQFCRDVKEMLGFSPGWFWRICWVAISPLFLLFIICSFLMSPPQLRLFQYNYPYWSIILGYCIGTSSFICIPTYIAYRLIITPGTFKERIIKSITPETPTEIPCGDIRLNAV
# T10 sequence (P23975 whole entry): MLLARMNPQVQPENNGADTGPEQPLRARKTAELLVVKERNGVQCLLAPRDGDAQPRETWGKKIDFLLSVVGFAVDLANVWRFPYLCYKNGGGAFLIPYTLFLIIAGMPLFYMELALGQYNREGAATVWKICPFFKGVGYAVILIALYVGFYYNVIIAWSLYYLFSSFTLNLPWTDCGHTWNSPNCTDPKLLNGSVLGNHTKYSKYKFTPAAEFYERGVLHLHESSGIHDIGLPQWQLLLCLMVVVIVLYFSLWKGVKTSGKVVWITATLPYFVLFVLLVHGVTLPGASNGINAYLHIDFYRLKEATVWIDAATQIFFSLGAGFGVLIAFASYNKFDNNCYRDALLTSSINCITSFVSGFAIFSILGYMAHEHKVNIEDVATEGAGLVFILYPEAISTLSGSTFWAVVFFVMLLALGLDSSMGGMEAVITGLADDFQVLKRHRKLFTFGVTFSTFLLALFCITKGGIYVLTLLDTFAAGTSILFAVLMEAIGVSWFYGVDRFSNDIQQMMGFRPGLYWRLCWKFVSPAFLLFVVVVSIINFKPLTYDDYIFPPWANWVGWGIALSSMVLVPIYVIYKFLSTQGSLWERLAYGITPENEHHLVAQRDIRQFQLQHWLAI
# T21 sequence (Q9H3N8 whole entry): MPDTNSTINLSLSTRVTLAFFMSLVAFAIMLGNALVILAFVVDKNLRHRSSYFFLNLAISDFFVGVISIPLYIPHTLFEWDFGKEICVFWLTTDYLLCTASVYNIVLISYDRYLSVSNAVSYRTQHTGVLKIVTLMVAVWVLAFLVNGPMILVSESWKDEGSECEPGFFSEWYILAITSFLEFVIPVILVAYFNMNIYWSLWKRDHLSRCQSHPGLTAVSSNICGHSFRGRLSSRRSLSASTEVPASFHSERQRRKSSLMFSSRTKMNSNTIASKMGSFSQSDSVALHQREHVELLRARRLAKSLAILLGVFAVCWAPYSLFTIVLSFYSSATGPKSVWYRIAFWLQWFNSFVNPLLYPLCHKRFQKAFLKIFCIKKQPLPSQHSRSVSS
# T19 sequence (P08172 whole entry): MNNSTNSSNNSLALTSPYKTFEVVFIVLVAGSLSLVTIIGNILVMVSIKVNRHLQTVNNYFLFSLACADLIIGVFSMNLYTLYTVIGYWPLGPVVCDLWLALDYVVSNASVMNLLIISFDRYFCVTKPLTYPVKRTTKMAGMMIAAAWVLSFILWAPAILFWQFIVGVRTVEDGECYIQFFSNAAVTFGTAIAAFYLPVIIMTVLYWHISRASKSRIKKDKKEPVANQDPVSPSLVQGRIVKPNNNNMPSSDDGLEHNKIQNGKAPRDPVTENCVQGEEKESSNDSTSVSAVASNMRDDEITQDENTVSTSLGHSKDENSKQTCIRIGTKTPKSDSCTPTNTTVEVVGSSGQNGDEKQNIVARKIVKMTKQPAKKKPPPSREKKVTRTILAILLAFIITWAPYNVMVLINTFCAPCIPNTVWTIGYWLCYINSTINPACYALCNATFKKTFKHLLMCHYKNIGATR
# T23 sequence (P07550 whole entry): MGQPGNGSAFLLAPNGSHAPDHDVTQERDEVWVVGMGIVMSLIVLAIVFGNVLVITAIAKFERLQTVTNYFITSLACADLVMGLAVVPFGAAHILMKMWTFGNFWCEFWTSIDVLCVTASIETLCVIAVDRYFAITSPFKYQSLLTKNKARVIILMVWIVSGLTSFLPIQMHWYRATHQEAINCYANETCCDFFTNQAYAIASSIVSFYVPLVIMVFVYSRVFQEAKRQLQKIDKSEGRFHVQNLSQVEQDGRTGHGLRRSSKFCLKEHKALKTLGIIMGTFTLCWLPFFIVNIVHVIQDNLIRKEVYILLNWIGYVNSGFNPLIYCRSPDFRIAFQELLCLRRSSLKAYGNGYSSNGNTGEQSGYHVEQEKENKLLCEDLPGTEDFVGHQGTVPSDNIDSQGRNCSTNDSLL
compound,measurement,setting,value
"CS(=O)(=O)Nc1ccc(OC[C@@H](O)CN2CCN(c3ccc(F)c(F)c3)CC2)cc1 [EU93-108, (S)-N-(4-(3-(4-(3,4-Difluorophenyl)piperazin-1-yl)-2-hydroxypropoxy)phenyl)methanesulfonamide]",inhibition at 10 µM,5-HT5A,13%
same,inhibition at 10 µM,D4,11.4%
same,inhibition at 10 µM,M5,-0.11%
same,inhibition at 10 µM,SERT,15.1%
same,inhibition at 10 µM,Beta3,-10.5%
same,inhibition at 10 µM,Alpha1B,5.09%
same,inhibition at 10 µM,H3,22.7%
same,inhibition at 10 µM,5-HT1E,1.68%
same,inhibition at 10 µM,DAT,-7.01%
same,inhibition at 10 µM,NET,12.5%
same,inhibition at 10 µM,5-HT6,25.3%
same,inhibition at 10 µM,M4,51.4%
same,inhibition at 10 µM,D5,8.94%
same,Mean % Inhibition,BZP Rat Brain Site,14.68%
same,inhibition at 10 µM,5-HT3,0.87%
same,inhibition at 10 µM,Beta1,29.1%
same,inhibition at 10 µM,KOR,-3.1%
same,inhibition at 10 µM,MOR,4.04%
same,inhibition at 10 µM,5-HT1D,39.2%
same,inhibition at 10 µM,M2,-23.1%
same,inhibition at 10 µM,5-HT1B,-7.29%
same,inhibition at 10 µM,H4,2.12%
same,inhibition at 10 µM,5-HT7A,55.9%
same,inhibition at 10 µM,Beta2,13.7%
same,inhibition at 10 µM,H2,13.7%
same,inhibition at 10 µM,D2,23.1%
same,inhibition at 10 µM,5-HT1A,22.8%
same,inhibition at 10 µM,M1,-18.1%
same,inhibition at 10 µM,M3,9.26%
same,inhibition at 10 µM,D1,24.7%
same,inhibition at 10 µM,Sigma2,47.2%
same,inhibition at 10 µM,DOR,-8.82%
same,Kp at 60 min,"[1]; brain (forebrain homogenate) / plasma, from Cmax, read-out: brain-to-plasma ratio",0.6
same,Cmax,"[1]; brain (whole forebrain homogenate), whole forebrain homogenate, read-out: Cmax in brain",18 µM
same,half-life,[1]; plasma and brain (forebrain homogenate),> 240 min
same,Tmax,"[1]; plasma and brain (forebrain homogenate), read-out: time of peak concentration (Tmax) (converted)",30 min
same,Cmax,"[1]; plasma, read-out: Cmax in plasma",30 µM
